Experimental data as given in article PMC7750294 (Journal of pharmaceutical sciences, 2020).
“And” between values parts separate entries of the source, which are not always exact repeats. Equal values may be shown once. Read-outs that look alike come from different tables or passages of the source.

Experiments:
[1] = cited from earlier work
OATP1B1 [2] = biological target: T1, OATP1B1 (Homo sapiens, UniProt Q9Y6L6); conditions: read-out: Apparent Km of transport by OATP1B1; cited from earlier work
T1 sequence (Q9Y6L6 1-691): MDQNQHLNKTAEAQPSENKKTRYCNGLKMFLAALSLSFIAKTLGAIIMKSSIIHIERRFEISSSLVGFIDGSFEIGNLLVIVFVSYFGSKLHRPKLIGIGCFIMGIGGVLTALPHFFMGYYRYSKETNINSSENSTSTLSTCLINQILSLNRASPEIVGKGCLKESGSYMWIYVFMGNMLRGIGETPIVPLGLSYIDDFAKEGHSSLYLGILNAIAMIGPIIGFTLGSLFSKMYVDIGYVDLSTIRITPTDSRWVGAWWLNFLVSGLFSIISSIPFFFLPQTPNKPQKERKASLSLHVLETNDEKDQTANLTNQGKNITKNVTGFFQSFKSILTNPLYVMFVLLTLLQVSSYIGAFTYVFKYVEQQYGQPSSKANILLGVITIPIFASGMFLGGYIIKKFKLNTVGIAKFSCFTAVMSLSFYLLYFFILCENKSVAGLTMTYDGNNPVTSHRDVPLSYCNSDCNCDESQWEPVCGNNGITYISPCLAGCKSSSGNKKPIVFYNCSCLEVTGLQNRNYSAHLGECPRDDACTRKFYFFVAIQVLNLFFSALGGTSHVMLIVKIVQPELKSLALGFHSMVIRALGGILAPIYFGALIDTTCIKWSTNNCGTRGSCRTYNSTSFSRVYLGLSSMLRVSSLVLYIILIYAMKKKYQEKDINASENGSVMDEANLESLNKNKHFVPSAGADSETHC

Caco-2 cell monolayers = conditions: cited from earlier work; for Reference Papp,caco-2 (7.4:7.4): ref Simcyp library value
P-gp = conditions: cited from earlier work
OATP1B1 [3] = biological target: T1, OATP1B1; experiment: Inhibition of OATP1B1-mediated [3H]-E217βG accumulation in HEK293-OATP1B1 cells; type: cell-based
OATP1B3 [4] = biological target: T2, OATP1B3 (Homo sapiens, UniProt Q9NPD5); experiment: Inhibition of OATP1B3-mediated [3H]-CCK-8 accumulation in HEK293-OATP1B3 cells; type: cell-based
T2 sequence (Q9NPD5 1-702): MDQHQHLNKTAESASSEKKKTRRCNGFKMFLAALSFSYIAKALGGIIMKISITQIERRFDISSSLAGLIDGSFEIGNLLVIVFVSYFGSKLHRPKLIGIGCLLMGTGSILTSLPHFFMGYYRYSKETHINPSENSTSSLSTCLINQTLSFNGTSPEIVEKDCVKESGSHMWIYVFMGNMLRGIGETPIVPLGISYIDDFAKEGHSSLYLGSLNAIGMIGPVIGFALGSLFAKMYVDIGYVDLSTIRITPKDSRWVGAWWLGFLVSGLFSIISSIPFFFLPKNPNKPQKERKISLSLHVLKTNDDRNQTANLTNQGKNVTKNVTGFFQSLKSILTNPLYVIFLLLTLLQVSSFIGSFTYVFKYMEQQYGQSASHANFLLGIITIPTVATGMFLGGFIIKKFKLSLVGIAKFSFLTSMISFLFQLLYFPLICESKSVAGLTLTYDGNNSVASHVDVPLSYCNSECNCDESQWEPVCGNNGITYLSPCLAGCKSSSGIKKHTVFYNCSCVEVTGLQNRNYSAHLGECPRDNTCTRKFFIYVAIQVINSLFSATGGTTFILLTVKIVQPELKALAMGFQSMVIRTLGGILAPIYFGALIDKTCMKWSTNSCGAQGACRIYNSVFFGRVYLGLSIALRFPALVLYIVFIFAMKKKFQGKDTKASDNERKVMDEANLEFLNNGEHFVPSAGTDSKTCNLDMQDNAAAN

[5] = Vemurafenib PBPK model parameters; set-up: species or system human
OATP1B1 [6] = biological target: T1, OATP1B1; conditions: 10 μM vemurafenib, aqueous buffer; cited from earlier work
[7] = cited from earlier work; remark: listed apart in the source
OATP1B3 [8] = biological target: T2, OATP1B3; conditions: cited from earlier work
[9] = cited from earlier work; for Aqueous solubility: highest/maximum aqueous solubility
Estimation of Iin,max = experiment: Estimation of Iin,max; set-up: species or system human; conditions: 960 mg; faFg = 1; Eq. 4
[10] = IC50,total against OATP1B1, 100% human plasma (pH 7.4), [3H]-E217βG 5 μM, 3 min, HEK293-OATP1B1
[11] = vemurafenib 150 μM in human plasma

Compound: C[C@]12CC[C@@H]3c4ccc(O)cc4CC[C@H]3[C@@H]1CC[C@@H]2O[C@@H]1O[C@H](C(=O)O)[C@@H](O)[C@H](O)[C@H]1O [E217βG, estradiol 17 β-D-glucuronide]
- fu (reported protein binding) [1]: 0.39
- Km (OATP1B1 [2]): ~8.3 µM

Compound: CN/C(=N/CCSCc1nc[nH]c1C)NC#N [cimetidine]
- Reference Papp,caco-2 (7.4:7.4) (Caco-2 cell monolayers): 4 10^−6 cm/s

Compound: C[C@H]1O[C@@H](O[C@H]2[C@@H](O)C[C@H](O[C@H]3[C@@H](O)C[C@H](O[C@H]4CC[C@@]5(C)[C@H](CC[C@@H]6[C@@H]5C[C@@H](O)[C@]5(C)[C@@H](C7=CC(=O)OC7)CC[C@]65O)C4)O[C@@H]3C)O[C@@H]2C)C[C@H](O)[C@@H]1O [digoxin]
- Mean terminal half-life (P-gp; single dose of digoxin alone): 35.0 h
- Mean terminal half-life (P-gp; single dose of digoxin co-administered with vemurafenib): 56.4 h

Compound: CNC(=C[N+](=O)[O-])NCCSCc1ccc(CN(C)C)o1 [ranitidine]
- Reference Papp,caco-2 (7.4:7.4) (Caco-2 cell monolayers): 1.2 10^−6 cm/s

Compound: CO[C@H]1/C=C/O[C@@]2(C)Oc3c(C)c(O)c4c(O)c(c(/C=N/N5CCN(C)CC5)c(O)c4c3C2=O)NC(=O)/C(C)=C\C=C\[C@H](C)[C@H](O)[C@@H](C)[C@@H](O)[C@@H](C)[C@H](OC(C)=O)[C@@H]1C [rifampicin]
- IC50 (OATP1B1 [3]; [10]): 2.1 µM
- IC50 (OATP1B1 [3]; read-out: Estimated IC50,unbound,OATP1B1, IC50,total 2.1 μM × fu,plasma 0.116): 0.24 µM

Compound: CCCS(=O)(=O)Nc1ccc(F)c(C(=O)c2c[nH]c3ncc(-c4ccc(Cl)cc4)cc23)c1F [vemurafenib]
- Passive permeability coefficient in Caco-2 cell monolayers (Caco-2 cell monolayers; ranitidine as reference compound): 2.9 10^−6 cm/s
- IC50 (OATP1B3 [4]; IC50,total against OATP1B3, 100% human plasma (pH 7.4), [3H]-CCK-8 1 μM, 3 min, HEK293-OATP1B3): 231 µM
- IC50 at 3 min (OATP1B3 [4]; human, HEK293 cells over-expressing OATP1B3 (HEK293-OATP1B3), pH 7.4, probe [3H]-CCK-8 (1 μM), IC50,total against OATP1B3, 100% human plasma (pH 7.4), [3H]-CCK-8 1 μM, 3 min, HEK293-OATP1B3): 232 ± 26 µM
- Effect on OATP1B3-mediated transport vs vehicle control (OATP1B3 [4]; vemurafenib 0.78 μM in HBSS buffer (pH 7.4), protein-free, CCK-8 1 μM, 3 min): does not affect
- OATP1B3-mediated transport remaining (OATP1B3 [4]; [11]): 72.1 % of control
- OATP1B3-mediated [3H]-CCK-8 transport (OATP1B3 [4]; vemurafenib 500 μM in 100% human plasma, CCK-8 1 μM, 3 min): 0.13 ± 0.04 fold of control
- Vd ([5]; human, oral, 960 mg): 0.9 L/kg
- CLR (renal clearance) ([5]; set from 0.97% of oral dose recovered in urine as parent): 0.01787 L/h
- Decrease of OATP1B1-mediated [3H]-E217βG transport (OATP1B1 [6]): ~ 75% and 75%
- Time to steady state ([7]; 960 mg BID multiple dosing): 15 to 21 days
- AUC0–8 h accumulation, day 15 vs day 1 ([7]; 960 mg BID): 23.2 ± 16.5 fold
- CLpo [7]: 2.67 (53.5) L/h, CV%
- Median accumulation ratio [7]: 7.36
- Oral dose recovered in urine as parent [7]: 0.97%
- Time to steady state for most patients [7]: ≤ 22 days
- ka, absorption rate constant ([7]; oral, population pharmacokinetic analysis): 0.19 h⁻¹
- Blood-to-plasma ratio (RB) ([1]; [14C]-vemurafenib): 0.58
- Protein bound in human plasma [1]: > 99%
- Unbound fraction in human plasma ([1]; independent of concentration 0.5–100 μM): 0.0014
- Uptake in OATP1B3-overexpressing cells vs vehicle control cells (OATP1B3 [8]): ~ 1.5 fold
- IC50 (OATP1B1 [3]; [10]): 175 µM
- Effect on OATP1B1-mediated transport vs vehicle control (OATP1B1 [3]; vemurafenib 0.78 μM in HBSS buffer (pH 7.4), protein-free, E217βG […], 2 min): does not affect
- OATP1B1-mediated transport remaining (OATP1B1 [3]; [11]): 60.2 % of control
- OATP1B1-mediated [3H]-E217βG transport (OATP1B1 [3]; vemurafenib 500 μM in 100% human plasma, E217βG 5 μM, 3 min): 0.38 ± 0.1 fold of control
- pKa (first) ([9]; diprotic acid): 7.9
- pKa (second) ([9]; diprotic acid): 11.1
- Aqueous solubility [9]: 0.78 µM
- Aqueous solubility ([9]; listed as Vemurafenib): ~ 0.78 μM
- Log PO:W ([9]; neutral species octanol:buffer partition coefficient): 3
- Iin,max (estimated total maximum plasma concentration at the inlet to the liver) (Estimation of Iin,max): 132 µM and 132.5 µM

Compound: Cholecystokinin 8 [CCK-8]
- Km (OATP1B3 [8]): ~3.8 µM
